Measured values from patent publication US8299285B2, “Compounds for imaging and therapy” (Isis Innovation Limited, priority 2005, dated 2012).
Where two headings read alike, the source gives them in different places.

Columns and labels:
[1] = octanol/water partition coefficient (log P); format: physicochemical
From the text: Modification of the substituents present on the bis(thiosemicarbazone) ligand can be used to control, for example, the lipophilicity of the ligand and resulting complex. For example, lipophilicity can be increased with increasing alkyl substitution of the conjugated ligand backbone, particularly in the groups R2, R2′, L1, L1′, R1 and R1′.

[2] = Cyclic voltammetry in DMF with a glassy carbon electrode; format: physicochemical; conditions: vs SCE
From the text: Under the same conditions the hypoxia selective radiopharmaceutical [Cu(ATSM)] undergoes a reversible reduction at E1/2=−0.59 V.

Structure (SMILES): CC(C=NNC(=S)N(C)C)=NNC(=S)N(C)C.[Cu] [Cu[PTSM2]]
- log P [1]: 3.18

Structure (SMILES): CC1=[N+]2N=C(N)[S][Cu-2]23[S]C(N)=N[N+]3=C1 (stereo not drawn) [Cu[PTS]]
- log P ([1]; P is the octanol/water partition coefficient): 0.76

Structure (SMILES): CN=C([S-])N/N=C(C)/C(C)=N/NC([S-])=NC.[Cu+2] [[Cu(ATSM)], Cu[ATSM], reference compound]
- E1/2 of reduction (Cu(II) to Cu(I)) [2]: −0.59 V
